Measurements taken from patent US8895548B2, “Pharmaceutical composition for treating alzheimer's disease” (Shionogi & Co., Ltd., priority 2007, dated 2014).

Test system: brain β amyloid 1-40
Experiment: Lowering effect on brain β amyloid in rats
Assay type: in vivo
Details: male Crg:SD rat, 10 mg/kg orally, brain isolated 3 hours after administration
Procedure: (§1) A test compound was suspended in 0.5% methylcellulose, the final concentration was adjusted to 2 mg/mL, and this was orally administered to male Crg:SD rat (7 to 9 week old) at 10 mg/kg. In a vehicle control group, only 0.5% methylcellulose was administered, and an administration test was performed at 3 to 8 animals per group. A brain was isolated 3 hours after administration, a cerebral hemisphere was isolated, a weight thereof was measured, the hemisphere was rapidly frozen in liquid nitrogen, and stored at −80° C. until the day for extraction. The frozen cerebral hemisphere was transferred to a homogenizer manufactured by Teflon (registered trade mark) under ice cooling, a 5-fold volume of a weight of an extraction buffer (containing 1% CHAPS ({3-[(3-chloroamidopropyl)dimethylammonio]-1-propanesulfonate}), 20 mM Tris-HCl (pH 8.0), 150 mM NaCl, Complete (Roche) protease inhibitor) was added, up and down movement was repeated, and this was homogenized to solubilize for 2 minutes. The suspension was transferred to a centrifugation tube, allowed to stand on an ice for 3 hours or more and, thereafter centrifuged at 100,000×g and 4° C. for 20 minutes. After centrifugation, the supernatant was transferred to an ELISA plate (product No. 27730, Immuno-Biological Laboratories) for measuring 3 amyloid 1-40. ELISA measurement was performed according to the attached instruction. The lowering effect was calculated as a ratio compared to the brain b amyloid 1-40 level of vehicle control group.

SMILES | brain β amyloid 1-40, % of vehicle control group
COc1cnc(C(=O)Nc2ccc(F)c([C@]3(C)CCSC(N)=N3)c2)cn1 [Compound 634] | 21.1 % of vehicle control group
Cc1cnc(C(=O)Nc2ccc(F)c([C@]3(C)CCSC(N)=N3)c2)cn1 [Compound 622] | 50.1 % of vehicle control group

Same assay, conditions: po; male Crg:SD rat, 10 mg/kg orally, brain isolated 3 hours after administration, ELISA; read-out: reduction of brain β amyloid 1-40 compared to vehicle control group

SMILES | inhibition in vivo at 10 mg/kg
Cc1cc(C(=O)Nc2ccc(F)c(C3(C)CCSC(N)=N3)c2)c(C)o1 (centres unmarked) [Compound 1282] | 60 to 90%
C[C@@]1(c2cccc(NC(=O)c3cnc(O)cn3)c2)CCSC(N)=N1 [Compound 733] | 60 to 90%
C[C@@]1(c2cccc(NC(=O)c3ncc(Cl)cc3Cl)c2)CCSC(N)=N1 [Compound 39] | 60 to 90%
COc1cnc(C(=O)Nc2cccc(C3(C)CCSC(N)=N3)c2)cn1 (centres unmarked) [Compound 243] | 60 to 90%
CC1(c2cccc(NC(=O)c3ccc(F)cn3)c2)CCSC(N)=N1 (centres unmarked) [Compound 212] | 60 to 90%
CC1(c2cccc(NC(=O)c3ncc(C(F)(F)F)cc3Cl)c2)CCSC(N)=N1 (centres unmarked) [Compound 482] | 60 to 90%
CC1(c2cc(NC(=O)c3ncc(Cl)cn3)ccc2F)CCSC(N)=N1 (centres unmarked) [Compound 204] | 60 to 90%
Cc1cnc(C(=O)Nc2ccc(F)c(C3(C)CCSC(N)=N3)c2)cn1 (centres unmarked) [Compound 359] | 60 to 90%
CC1(c2cccc(NC(=O)c3ccc(Cl)cn3)c2)CCSC(N)=N1 (centres unmarked) [Compound 793] | 60 to 90%

Test system: brain β amyloid 1-40
Experiment: Lowering effect on brain β amyloid in mice
Assay type: in vivo
Details: sc; male Crlj:CD-1(ICR) mouse, 100 mg/kg subcutaneously, brain isolated 3 hours after administration, ELISA; read-out: reduction of brain β amyloid 1-40 compared to vehicle control group
Procedure: as §1
A test compound was suspended in 0.5% methylcellulose, the final concentration was adjusted to 10 mg/mL, and this was subcutaneously administered to back of male Crlj:CD-1(ICR) mouse (7 to 8 week old) at 100 mg/kg. In a vehicle control group, only 0.5% methylcellulose was administered. A test was performed at 4 to 8 animals per group. A brain was isolated 3 hours after administration. The subsequent operations were the same as in the above test in rat.

SMILES | inhibition in vivo at 100 mg/kg
Cc1cnc(C(=O)Nc2cccc(C3(C)CCSC(N)=N3)c2)cn1 (centres unmarked) [Compound 309] | 60 to 90%
CC1(c2cccc(NC(=O)c3ncc(Br)cn3)c2)CCSC(N)=N1 (centres unmarked) [Compound 900] | 60 to 90%
CC1(c2cc(Br)cc(NC(=O)c3ccc(Br)cc3)c2)CCSC(N)=N1 (centres unmarked) [Compound 1262] | 60 to 90%
CC1(c2cccc(C(=O)Nc3ccc(Cl)cn3)c2)CCSC(N)=N1 (centres unmarked) [Compound 220] | 60 to 90%
CC1(c2cc(NC(=O)c3ccc(Cl)cn3)cc(C(F)(F)F)c2)C=C(N)SCC1 (centres unmarked) [Compound 964] | 60 to 90%
CC1(c2cccc(NC(=O)c3cnc(N=[N+]=N)cn3)c2)CCSC(N)=N1 (centres unmarked) [Compound 1266] | 60 to 90%
CC1(c2cc(Br)cc(NC(=O)c3ccc(Cl)cn3)c2)CCSC(N)=N1 (centres unmarked) [Compound 165] | 60 to 90%
CC1(c2cc(Br)cc(NC(=O)c3cc4ccccc4s3)c2)CCSC(N)=N1 (centres unmarked) [Compound 1014] | 60 to 90%
CC1(c2cc(Cl)cc(NC(=O)c3ccc(Cl)cn3)c2)CCSC(N)=N1 (centres unmarked) [Compound 739] | 60 to 90%

Same assay, conditions: sc; male Crlj:CD-1(ICR) mouse, 100 mg/kg subcutaneously, brain isolated 3 hours after administration; read-out: brain β amyloid 1-40, % of vehicle control group

SMILES | response vs control in vivo at 100 mg/kg
CC1(c2cc(NC(=O)c3ccc(F)cn3)ccc2F)CCSC(N)=N1 (centres unmarked) [Compound 605] | 36.5%
CC1(c2cc(NC(=O)c3ccc(C(F)(F)F)cn3)ccc2F)CCSC(N)=N1 (centres unmarked) [Compound 396] | 38.4%
CC1(c2cccc(NC(=O)c3ncc(Cl)cc3Cl)c2)CCSC(N)=N1 (centres unmarked) [Compound 127] | 25.2%
CC1(c2cc(NC(=O)c3ccc(Cl)cn3)ccc2F)CCSC(N)=N1 (centres unmarked) [Compound 1043] | 15%
CC1(c2cc(NC(=O)c3ccc(Cl)cn3)ccc2Cl)CCSC(N)=N1 (centres unmarked) [Compound 1199] | 14.1%
CC1(c2cccc(NC(=O)c3ccc(C(F)(F)F)cn3)c2)CCSC(N)=N1 (centres unmarked) [Compound 1244] | 50.1%

Test system: brain β amyloid 1-40
Experiment: Lowering effect on brain β amyloid in mice
Assay type: in vivo
Details: sc; male Crlj:CD-1(ICR) mouse, 3 hours after 30 mg/kg of subcutaneous administration; read-out: brain β amyloid 1-40, % of vehicle control group

SMILES | response vs control in vivo at 30 mg/kg
CC1(c2cccc(NC(=O)c3ccc(C#N)cn3)c2)CCSC(N)=N1 (centres unmarked) [Compound 651] | 52.3%

Test system: not given
Experiment: not given
Details: not given

melting point | SMILES
152 to 153 °C | CC1(C2C=C(/C=N/OCc3cccnc3)C=CC2)CCSC(N)=N1 (centres unmarked) [Compound 584]
187 to 190 °C | C[C@@]1(c2cc(NC(=O)c3n[nH]c4ccccc34)ccc2F)CCSC(N)=N1 [Compound 241]
164 to 187 °C | COC(=O)c1cc(C(=O)Nc2cccc(C3(C)CCSC(N)=N3)c2)nn1C (centres unmarked) [Compound 687]
132 to 134 °C | CC1(c2ccc(F)c(C(=O)NC3=CC(Cl)CC=N3)c2)CCSC(N)=N1 (centres unmarked) [Compound 1068]
148 to 150 °C | C[C@@]1(C2C=C(NC(=O)c3ncc(Cl)cc3N)C=CC2)CCSC(N)=N1 (some centres unmarked) [Compound 743]
185 to 187 °C | CC1(c2cc(NC(=O)c3ccc(Cl)cn3)cc(C(F)(F)F)c2)C=C(N)SCC1 (centres unmarked) [Compound 964]
214 to 217 °C | COc1ccc([C@]2(C)N=C(N)SC[C@H]2C)cc1 [Compound 8]
91 to 96 °C | CC1(c2cccc(NC(=O)C3CN=CC=N3)c2)CCSC(N)=N1 (centres unmarked) [Compound 164]
141 to 142 °C | COc1ccc([C@@]2(C)C[C@H](C)SC(N)=N2)cc1 [Compound 86]
139 to 140 °C | C[C@]1(c2ccccc2)C[C@H](c2ccccc2)SC(N)=N1 (racemic) [Compound 835]
205 to 206 °C | CC1(c2ccccc2)CCN=C(N)S1.Cl (centres unmarked) [Compound 783]
204 to 208 °C | CC1(c2cccc(NC(=O)c3ncc(Cl)cn3)c2)CCSC(N)=N1 (centres unmarked) [Compound 515]
155 to 158 °C | CC1(c2cccc(CO)c2)CCSC(N)=N1 (centres unmarked) [Compound 501]
169 to 170 °C | CC1(c2ccc(OC3C=CC=CC3)cc2)CCSC(N)=N1 (centres unmarked) [Compound 1055]
290 to 295 °C | CC1(c2ccc(F)c(N3N=C4c5cc(Cl)ccc5NCC4C3=O)c2)CCSC(N)=N1 (centres unmarked) [Compound 1166]
167 to 170 °C | CCS/C(N)=N\C(C)C1C=C(NC(=O)c2cnc3ccccc3n2)C=CC1 (centres unmarked) [Compound 1115]
161 to 165 °C | C[C@]1(c2ccccc2)C[C@@H](c2ccccc2)SC(N)=N1.Cl
219 to 222 °C | CC1(C2=CC=C(F)CC2)CCCSC(N)=N1.Cl (centres unmarked)
223 to 225 °C | CC1(C2=CC=CCC2)CCCSC(N)=N1.Cl (centres unmarked)
162 to 165 °C | Cc1ccc(OC2=CCC(C3(C)CCSC(N)=N3)C=C2)cc1 (centres unmarked) [Compound 1067]
